Patent US20060252045A1, “Methods and materials for identifying agents which modulate bone remodeling and agents identified thereby” (priority 2003, published 2006)

Legend:
[1] = system: Wnt/β-catenin target gene expression in MC3T3 cells; assay: Flexercell mechanical load gene expression in MC3T3 cells (real-time PCR); conditions: for load induced Frizzled 2, eNOS, Fos and Jun gene expression: MC3T3, 1-60 μM added 1 hr prior to load; for load induced Connexin 43, Cyclin D1, Wnt 10b, SFRP1 and COX-2 gene expression: MC3T3, 1-60 μM added 1 hr prior to load (3,400 με, 5 hrs)
Procedure: For these experiments, the mouse MC3T3 osteoblastic cells were cultured in alpha minimum essential media (αMEM) (Invitrogen) supplemented with 10% heat inactivated FBS, 1% glutamax (Invitrogen) and 1% penicillin/streptomycin (Invitrogen). […] For those samples being pretreated in serum free media the cells were washed twice each with 2 mL of basal αMEM media prior to adding the BSA containing media. […] The cells were then subjected to mechanical distortion equivalent to 3,400 με (2 Hz, 7200 cycles/hr), for 5 hrs using a FX-3000 Flexercell® strain unit (Flexcell International Corp). RNA was then harvested (using the Qiagen Rneasy mini kit) immediately or 24 hr post loading from both the mechanical strained samples as well as the non-strained controls. All data shown in the examples that utilize the FlexerCell were derived from the RNA immediately harvested following loading.
Real-time PCR was then performed for the indicated genes using mouse gene specific primers and probes as discussed above.
RNA was isolated immediately after application of load and processed for TaqMan® analysis. The transcripts analyzed were COX-2, eNOS, Connexin 43, SFRP1, Wnt10B, cyclin D1, Frizzled 2, WISP2, Fos and Jun (FIG. 15).
Here, Wnt 3A conditioned media was obtained from mouse L-cells transfected with murine Wnt 3A. The MC3T3 cells were seeded and cultured for 3 days in growth media until confluence, as described above. The media for the MC3T3 cells was then changed to BSA containing media, and the cells were incubated for 24 hours. The BSA-containing media was then removed and replaced with fresh BSA media at a final volume of 1 mL containing various amounts of L-cell Wnt 3A conditioned media or control conditioned media from untransfected L-cells. The amount of Wnt 3A conditioned media varied from 0.5, 2.0, 5.0, 10.0, 20.0 and 100 μL in a final volume of 1 ml serum free BSA media. The MC3T3 cells were then subjected to 3,400 με at 2 Hz, 7200 cycles/hr for 5 hours as described in the prior examples.

mouse calvariae = assay: Mouse calvarial model: calvarial thickness (histomorphometry); type: in vivo; conditions: 20 μg/kg/day
Procedure: Following sacrifice by CO2 narcosis, calvariae were removed intact, soft tissues were gently dissected, and the bones were fixed in 70% ethanol for 24 h for further processing and analysis. Calvariae were then bisected perpendicular to the sagittal suture through the central portion of the parietal bones parallel to the lambdoidal and coronal sutures. The anterior portion of the calvaria was used for paraffin sections, and the posterior portion of the calvaria was used for frozen sections. Four to five 5 μm-thick representative, non-consecutive step sections were cut. The paraffin sections are routinely stained with hematoxylin and eosin (H&E) for the measurement of calvarial thickness. The frozen sections were used for alkaline phosphatase detection. To facilitate histomorphometric measurements, a standard length of 2 mm of each section from the edge of the sagittal suture to the muscle insertion at the lateral border of each bone was used. All measurements were made using the R&M Biometrics Inc. Bioquant Image Analysis System.

[2] = system: alkaline phosphatase activity in calvarial osteoblasts; assay: Mouse calvarial model: alkaline phosphatase histochemical staining; type: in vivo; conditions: local administration, 7 days, vs vehicle
Procedure: Following sacrifice by CO2 narcosis, calvariae were removed intact, soft tissues were gently dissected, and the bones were fixed in 70% ethanol for 24 h for further processing and analysis. Calvariae were then bisected perpendicular to the sagittal suture through the central portion of the parietal bones parallel to the lambdoidal and coronal sutures. The anterior portion of the calvaria was used for paraffin sections, and the posterior portion of the calvaria was used for frozen sections. Four to five 5 μm-thick representative, non-consecutive step sections were cut. […] The frozen sections were used for alkaline phosphatase detection. To facilitate histomorphometric measurements, a standard length of 2 mm of each section from the edge of the sagittal suture to the muscle insertion at the lateral border of each bone was used. All measurements were made using the R&M Biometrics Inc. Bioquant Image Analysis System.
The activity of Alkaline Phosphatase (ALPase) was assessed with a histochemical stain using a Vector Red Alkaline Phosphatase Substrate Kit (Vector Laboratories, Inc. Burlingame, Calif.) in 6 μm frozen sections of the mouse parietal bone after fixing in 70% Ethanol.

β-catenin = assay: Mouse calvarial model: β-catenin immunohistochemistry; type: in vivo; conditions: local injection
Procedure: Following sacrifice by CO2 narcosis, calvariae were removed intact, soft tissues were gently dissected, and the bones were fixed in 70% ethanol for 24 h for further processing and analysis. Calvariae were then bisected perpendicular to the sagittal suture through the central portion of the parietal bones parallel to the lambdoidal and coronal sutures. The anterior portion of the calvaria was used for paraffin sections, and the posterior portion of the calvaria was used for frozen sections. Four to five 5 μm-thick representative, non-consecutive step sections were cut.
After fixation, the anterior portion of the calvaria was decalcified in Surgipath Decalcifier II (Richmond, Ill.) for 7-8 h and then dehydrated in graded alcohol. Four to five 5 μm-thick representative, non-consecutive coronal step paraffin sections were cut. […] The binding of the antibody to the epitope was visualized (1 μg/1 mL) using an avidin-linked AP system (Vector Laboratories, Burlingame, Calif.). Controls comprised samples with the avidin-AP in the absence of primary antibody.

[3] = system: Dkk1 suppressed Wnt1/Wnt 3A TCF-signal in U2OS cells; assay: Release of Dkk1 mediated inhibition of TCF-signal in U2OS cells; type: cell-based, human; conditions: Dkk1 0.1 μg/well co-transfected with Wnt1 or Wnt 3A
Procedure: The final readout is activation of Dkk1 mediated suppressed TCF-signal. […] The experiment represented in FIG. 2 involved U2OS (ATCC) bone cells and is based on the endogenous expression of LRP5/6 receptors. […] 10 μL of the 15× stock was added per well along with appropriately diluted vehicle (i.e., DMSO) control.

Molecule: CS(=O)(=O)Nc1ccc([N+](=O)[O-])cc1OC1CCCCC1 [NS-398, N-(2-cyclohexyloxy-4-nitrophenyl)methanesulfonamide]
- load induced Frizzled 2, eNOS, Fos and Jun gene expression [1]: no effect
- load induced Connexin 43, Cyclin D1, Wnt 10b, SFRP1 and COX-2 gene expression [1]: block the induction
- load induced Connexin 43, Cyclin D1, Wnt 10b, SFRP1 and COX-2 gene expression ([1]; listed as COX-2 inhibitor): does not induce transcription
- load induced Frizzled 2, eNOS, Fos and Jun gene expression ([1]; listed as COX-2 inhibitor): independent of COX-2 activity

Molecule: Human PTH (1-34): Human parathyroid hormone (1-34), positive control in the calvarial model (SVSEIQLMHNLGKHLNSMERVEWLRKKLQDVHNF; Parathyroid hormone; UniProt P01270 32-65, looked up, fragment)
- effect on calvarial thickness (positive control) (mouse calvariae): significant increase in calvarial thickness
- alkaline phosphatase (ALPase) activity in osteoblasts [2]: markedly enhanced
- β-catenin expression in osteoblastic cells lining the periosteum (β-catenin): no effect

Molecule: Wnt 3A
- cyclin D1, connexin 43, SFRP1, Wnt 10B, WISP2, COX-2, FOS and JUN gene expression, alone ([1]; MC3T3, Wnt 3A conditioned media, no load): no effect

B1: Dkk1: Wnt antagonist co-transfected into U2OS cells; inhibits LRP5 activity (protein, UniProt O94907 32-266, looked up)
Dickkopf-related protein 1: TLNSVLNSNAIKNLPPPLGGAAGHPGSAVSAAPGILYPGGNKYQTIDNYQPYPCAEDEECGTDEYCASPTRGGDAGVQICLACRKRRKRCMRHAMCCPGNYCKNGICVSSDQNHFRGEIEETITESFGNDHSTLDGYSRRTTLSSKMYHTKGQEGSVCLRSSDCASGLCCARHFWSKICKPVLKEGQVCTKHRRKGSHGLEIFQRCYCGEGLSCRIQKDHHQASNSSRLHTCQRH
- effect on Wnt1/Wnt 3A TCF-activity [3]: suppressed almost completely
